Legend:
Assay in all cases: Test B pre-/postemergence plant response
Type in all cases: in vivo
Conditions in all cases: Postemergence
[1] = system: downy bromegrass (Bromus tectorum)
In short: (§1)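 Greenhouse herbicide screen. Pre- and postemergence (1- to 4-leaf) spray of compound in solvent/surfactant mixture; loam–sand soil for pre, peat/vermiculite medium for post. Visual control rating 0–100 at 13 to 15 days after treatment.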

[2] = system: giant foxtail (Setaria faberii)
In short: as §1

kochia (Kochia scoparia) = system: kochia (Kochia scoparia)
In short: as §1

[3] = system: green foxtail (Setaria viridis)
In short: as §1

[4] = system: pigweed (Amaranthus retroflexus)
In short: as §1

[5] = system: johnsongrass (Sorghum halepense)
In short: as §1

[6] = system: yellow nutsedge (Cyperus esculentus)
In short: as §1

[7] = system: woolly cupgrass (Eriochloa villosa)
In short: as §1

[8] = system: goosegrass (Eleusine indica)
In short: as §1

[9] = system: velvetleaf (Abutilon theophrasti)
In short: as §1

[10] = system: lambsquarters (Chenopodium album)
In short: as §1

[11] = system: wheat (Triticum aestivum)
In short: as §1

[12] = system: large crabgrass (Digitaria sanguinalis)
In short: as §1

Q: Which results are given for COc1ccc(-n2c(-c3ccccc3)ncc(C(=O)C3=C(O)CCCC3=O)c2=O)cc1 [Compound 4, 5-[(2-hydroxy-6-oxo-cyclohexen-1-yl)carbonyl]-3-(4-methoxyphenyl)-2-phenyl-4(3H)-pyrimidinone]?
A: pest or weed control at 31 g/ha ([1]; Bromus tectorum, post-emergence, 31 g ai/ha, scale 0 to 100 (0 no effect, 100 complete control), read-out: Plant response rating, Bromegrass, Downy): 10%; pest or weed control at 62 g/ha ([1]; Bromus tectorum, post-emergence, 62 g ai/ha, scale 0 (no effect) to 100 (complete control), 13 to 15 days, read-out: Plant response rating, Bromegrass, Downy): 15%; pest or weed control at 125 g/ha ([1]; Bromus tectorum, post-emergence, 125 g ai/ha, visual rating after 13 to 15 days, scale 0 (no effect) to 100 (complete control)): 50%; Bromegrass, Downy plant response rating ([1]; 250 g ai/ha, scale 0 to 100): 55; Foxtail, Giant plant response rating ([2]; 250 g ai/ha, scale 0 to 100): 100; pest or weed control at 31 g/ha ([2]; Setaria faberi, post-emergence, 31 g ai/ha, scale 0 to 100 (0 no effect, 100 complete control), read-out: Plant response rating, Foxtail, Giant): 80%; pest or weed control at 62 g/ha ([2]; Setaria faberi, post-emergence, 62 g ai/ha, scale 0 (no effect) to 100 (complete control), 13 to 15 days, read-out: Plant response rating, Foxtail, Giant): 98%; pest or weed control at 125 g/ha ([2]; Setaria faberi, post-emergence, 125 g ai/ha, visual rating after 13 to 15 days, scale 0 (no effect) to 100 (complete control)): 98%; pest or weed control at 31 g/ha (kochia (Kochia scoparia); Bassia scoparia, post-emergence, 31 g ai/ha, scale 0 to 100 (0 no effect, 100 complete control), read-out: Plant response rating, Kochia): 80%; pest or weed control at 62 g/ha (kochia (Kochia scoparia); Bassia scoparia, post-emergence, 62 g ai/ha, scale 0 (no effect) to 100 (complete control), 13 to 15 days, read-out: Plant response rating, Kochia): 100%; pest or weed control at 125 g/ha (kochia (Kochia scoparia); Bassia scoparia, post-emergence, 125 g ai/ha, visual rating after 13 to 15 days, scale 0 (no effect) to 100 (complete control)): 100%; Kochia plant response rating (kochia (Kochia scoparia); 250 g ai/ha, scale 0 to 100): 100; Foxtail, Green plant response rating ([3]; 250 g ai/ha, scale 0 to 100): 60; pest or weed control at 31 g/ha ([3]; Setaria viridis, post-emergence, 31 g ai/ha, scale 0 to 100 (0 no effect, 100 complete control), read-out: Plant response rating, Foxtail, Green): 40%; pest or weed control at 62 g/ha ([3]; Setaria viridis, post-emergence, 62 g ai/ha, scale 0 (no effect) to 100 (complete control), 13 to 15 days, read-out: Plant response rating, Foxtail, Green): 40%; pest or weed control at 125 g/ha ([3]; Setaria viridis, post-emergence, 125 g ai/ha, visual rating after 13 to 15 days, scale 0 (no effect) to 100 (complete control)): 60%; pest or weed control at 31 g/ha ([4]; Amaranthus retroflexus, post-emergence, 31 g ai/ha, scale 0 to 100 (0 no effect, 100 complete control), read-out: Plant response rating, Pigweed): 100%; pest or weed control at 62 g/ha ([4]; Amaranthus retroflexus, post-emergence, 62 g ai/ha, scale 0 (no effect) to 100 (complete control), 13 to 15 days, read-out: Plant response rating, Pigweed): 100%; pest or weed control at 125 g/ha ([4]; Amaranthus retroflexus, post-emergence, 125 g ai/ha, visual rating after 13 to 15 days, scale 0 (no effect) to 100 (complete control)): 100%; Pigweed plant response rating ([4]; 250 g ai/ha, scale 0 to 100): 100; Johnsongrass plant response rating ([5]; 250 g ai/ha, scale 0 to 100): 98; pest or weed control at 31 g/ha ([5]; Sorghum halepense, post-emergence, 31 g ai/ha, scale 0 to 100 (0 no effect, 100 complete control), read-out: Plant response rating, Johnsongrass): 45%; pest or weed control at 62 g/ha ([5]; Sorghum halepense, post-emergence, 62 g ai/ha, scale 0 (no effect) to 100 (complete control), 13 to 15 days, read-out: Plant response rating, Johnsongrass): 80%; pest or weed control at 125 g/ha ([5]; Sorghum halepense, post-emergence, 125 g ai/ha, visual rating after 13 to 15 days, scale 0 (no effect) to 100 (complete control)): 95%; pest or weed control at 31 g/ha ([6]; Cyperus, post-emergence, 31 g ai/ha, scale 0 to 100 (0 no effect, 100 complete control), read-out: Plant response rating, Nutsedge, Yellow): 55%; pest or weed control at 62 g/ha ([6]; Cyperus, post-emergence, 62 g ai/ha, scale 0 (no effect) to 100 (complete control), 13 to 15 days, read-out: Plant response rating, Nutsedge, Yellow): 65%; pest or weed control at 125 g/ha ([6]; Cyperus, post-emergence, 125 g ai/ha, visual rating after 13 to 15 days, scale 0 (no effect) to 100 (complete control)): 75%; Nutsedge, Yellow plant response rating ([6]; 250 g ai/ha, scale 0 to 100): 80; pest or weed control at 31 g/ha ([7]; Eriochloa villosa, post-emergence, 31 g ai/ha, scale 0 to 100 (0 no effect, 100 complete control), read-out: Plant response rating, Cupgrass, Woolly): 75%; pest or weed control at 62 g/ha ([7]; Eriochloa villosa, post-emergence, 62 g ai/ha, scale 0 (no effect) to 100 (complete control), 13 to 15 days, read-out: Plant response rating, Cupgrass, Woolly): 95%; pest or weed control at 125 g/ha ([7]; Eriochloa villosa, post-emergence, 125 g ai/ha, visual rating after 13 to 15 days, scale 0 (no effect) to 100 (complete control)): 100%; Cupgrass, Woolly plant response rating ([7]; 250 g ai/ha, scale 0 to 100): 100; pest or weed control at 31 g/ha ([8]; Eleusine indica, post-emergence, 31 g ai/ha, scale 0 to 100 (0 no effect, 100 complete control), read-out: Plant response rating, Goosegrass): 25%; pest or weed control at 62 g/ha ([8]; Eleusine indica, post-emergence, 62 g ai/ha, scale 0 (no effect) to 100 (complete control), 13 to 15 days, read-out: Plant response rating, Goosegrass): 75%; pest or weed control at 125 g/ha ([8]; Eleusine indica, post-emergence, 125 g ai/ha, visual rating after 13 to 15 days, scale 0 (no effect) to 100 (complete control)): 85%; Goosegrass plant response rating ([8]; 250 g ai/ha, scale 0 to 100): 98; pest or weed control at 31 g/ha ([9]; Abutilon theophrasti, post-emergence, 360 h, 31 g ai/ha, scale 0 to 100 (0 no effect, 100 complete control), read-out: Plant response rating, Velvetleaf): 70%; pest or weed control at 62 g/ha ([9]; Abutilon theophrasti, post-emergence, 360 h, 62 g ai/ha, scale 0 (no effect) to 100 (complete control), 13 to 15 days, read-out: Plant response rating, Velvetleaf): 75%; pest or weed control at 125 g/ha ([9]; Abutilon theophrasti, post-emergence, 360 h, 125 g ai/ha, visual rating after 13 to 15 days, scale 0 (no effect) to 100 (complete control)): 90%; Velvetleaf plant response rating ([9]; 250 g ai/ha, scale 0 to 100): 100; pest or weed control at 31 g/ha ([10]; Chenopodium album, post-emergence, 31 g ai/ha, scale 0 to 100 (0 no effect, 100 complete control), read-out: Plant response rating, Lambsquarters): 98%; pest or weed control at 62 g/ha ([10]; Chenopodium album, post-emergence, 62 g ai/ha, scale 0 (no effect) to 100 (complete control), 13 to 15 days, read-out: Plant response rating, Lambsquarters): 100%; pest or weed control at 125 g/ha ([10]; Chenopodium album, post-emergence, 125 g ai/ha, visual rating after 13 to 15 days, scale 0 (no effect) to 100 (complete control)): 100%; Lambsquarters plant response rating ([10]; 250 g ai/ha, scale 0 to 100): 100; Wheat plant response rating ([11]; 250 g ai/ha, scale 0 to 100): 70; plant injury at 31 g/ha ([11]; Triticum aestivum, post-emergence, 31 g ai/ha, scale 0 to 100 (0 no effect, 100 complete control), read-out: Plant response rating, Wheat): 5%; plant injury at 62 g/ha ([11]; Triticum aestivum, post-emergence, 62 g ai/ha, scale 0 (no effect) to 100 (complete control), 13 to 15 days, read-out: Plant response rating, Wheat): 5%; plant injury at 125 g/ha ([11]; Triticum aestivum, post-emergence, 125 g ai/ha, visual rating after 13 to 15 days, scale 0 (no effect) to 100 (complete control)): 50%; pest or weed control at 31 g/ha ([12]; Digitaria sanguinalis, post-emergence, 31 g ai/ha, scale 0 to 100 (0 no effect, 100 complete control), read-out: Plant response rating, Crabgrass, Large): 70%; pest or weed control at 62 g/ha ([12]; Digitaria sanguinalis, post-emergence, 62 g ai/ha, scale 0 (no effect) to 100 (complete control), 13 to 15 days, read-out: Plant response rating, Crabgrass, Large): 85%; pest or weed control at 125 g/ha ([12]; Digitaria sanguinalis, post-emergence, 125 g ai/ha, visual rating after 13 to 15 days, scale 0 (no effect) to 100 (complete control)): 100%; Crabgrass, Large plant response rating ([12]; 250 g ai/ha, scale 0 to 100): 100

Reference: US8952024B2, “Herbicidal pyrimidone derivatives” (E I du Pont de Nemours and Company, priority 2009, dated 2015)
